Assays:
hiPS cells [1] = experiment: TUNEL assay (apoptosis); type: cell-based, human
Method: The samples in triplicates used for cell viability assay were immediately tested by TUNEL assay by using APO-DIRECT kit (BD Pharmingen) according to the manufacturer's protocol. The number of TUNEL (FITC) or propidium iodide (PI)-positive cells was counted by hemocytometer under fluorescent microscopy with 20× objective. When necessary, FITC-labeled cells were verified by using 40× objective to exclude non-specific signal. At least 300 cells were evaluated per each sample and counting was repeated for 2 times. The ratio of the number of TUNEL-positive cells to the number of PI-positive cells was calculated. The representative result was shown in the figure from experiments repeated for at least 3 times. Although flow cytometric analysis was initially attempted, due to persistent cell aggregations from suspension culture experiments even after extensive trypsinization and trituration, we decided to switch to manual cell counting which well correlated with the data obtained from cell viability assay.

cleaved caspase-3 = experiment: Western analysis of cleaved caspase-3; type: cell-based, human; settings: hiPS cells under adherence condition
Method: Total protein was extracted with RIPA buffer (20 mM Tris-HCl, pH 7.5, 150 mM NaCl, 1 mM Na2EDTA, 1 mM EGTA, 1% NP-40, 1% sodium deoxycholate, 2.5 mM sodium pyrophosphate, 1 mM β-glycerophosphate, 1 mM Na3VO4, and protease inhibitors). Protein concentrations were determined by BCA Protein Assay kit (Pierce). An equal amount (20 μg) of protein was loaded in each lane, separated by 10% SDS/PAGE, and transferred onto a PVDF membrane (BioRad). The membrane was blocked in Odyssey blocking buffer (LI-COR Biotechnology), and subsequently incubated with primary antibodies against Oct3 (Santa Cruz Biotechnology), Nanog (Millipore), myosin IIA (Covance), myosin IIB (Covance), cleaved caspase-3 (Cell Signaling), or β-actin (Sigma) at 4° C. overnight followed by incubation with peroxidase-conjugated goat anti-mouse IgG or goat anti-rabbit IgG (Jackson ImmunoResearch, Inc.), and developed with ECL reagent (GE Healthcare).

hiPS cells [2] = experiment: Cell growth assay (population doubling time); type: cell-based, human; settings: hiPS cells on PDL in mTeSR, compound at 5 μM
Method: For the cell growth assay, hiPS or hES cells were plated at 2.5×10^4 cells/cm^2 on plates coated with PDL or Matrigel in mTeSR in the presence of blebbistatin at 5 μM or Y-27632 at 5 μM (PDL) or in the absence of compounds (Matrigel). Cells were harvested at the indicated time points, stained with trypan blue, and counted by the hemocytometer.

hiPS cells [3] = experiment: Attachment of hiPS cells on poly-D-lysine (PDL) in mTeSR; type: cell-based, human; settings: no signs of defects in cell-cell adhesions
Source text: Myosin II controls cell-matrix contacts and detachment-induced apoptosis in hiPS and hiES cells. […] Similar results were obtained from the experiments using hES cells.

hES cells = experiment: Cell-cell contact of hES cells (morphology, cell contact index); type: cell-based, human; settings: hES cells, 10 μM
Method: Rock and myosin II regulate cell-cell interactions in hES cells. To test whether the observed function of RRM signaling in cell-cell contacts in mES cells is conserved in hES cells, H1 cells grown under the feeder-free condition with Matrigel™ and conditioned medium (CM) (FIG. 3A) were treated with C3 exoenzyme. […] Rock-inhibitor treatment also led to cell adhesion defects although it required a higher concentration (20 μM) than that (10 μM) for mES cells (FIG. 3C). Myosin IIA and IIB were colocalized with cell-cell borders in hES cells, which indicates their potential role in cell-cell adhesions (FIG. 3D).

Oct3/4 and Nanog = Oct3/4 and Nanog expression by QPCR, Western analysis and immunocytochemistry; type: cell-based, human; settings: hES cells in mTeSR or hESm, different concentrations, 48 h
Method: For immunocytochemistry, cells grown on culture vessels were fixed in 4% paraformaldehyde (USB Corporation). After washing with PBS/BSA, the samples were incubated with primary antibodies recognizing the target proteins at 4° C. overnight. The primary antibodies used in the study include Oct3 (BD Biosciences), myosin IIA (Covance), and myosin IIB (Covance). The samples were washed for three times, and incubated with appropriate secondary antibodies conjugated with Alexa Fluorophore (Invitrogen) at room temperature for 30 min. […]
QPCR. […] The extracted RNA sample was quantified by UV spectrophotometer, and qualified by the RNA Nano Lab chip (Agilent Technologies). […] Each cycle threshold (CT) value was determined by iQ5 optical system software (BioRad), and normalized by the β-actin expression level. […]
Total protein was extracted with RIPA buffer (20 mM Tris-HCl, pH 7.5, 150 mM NaCl, 1 mM Na2EDTA, 1 mM EGTA, 1% NP-40, 1% sodium deoxycholate, 2.5 mM sodium pyrophosphate, 1 mM β-glycerophosphate, 1 mM Na3VO4, and protease inhibitors). Protein concentrations were determined by BCA Protein Assay kit (Pierce). […]

[4] = tested on: hES or hiPS cells grown under the defined condition; experiment: Teratoma formation in SCID/beige mice; type: in vivo, mouse; settings: cells grown under blebbistatin/PDL for 20 passages, about 2×10^6 cells subcutaneously, 4 to 8 weeks
Source text: All animal-related protocols were approved by Institutional Animal Care and Use Committee. Cells (approximately 2×10^6 cells) grown under defined conditions for multiple passages with occasional freezing and thawing were subcutaneously injected into severe combined immunodeficient (SCID)/beige mice (Charles River Laboratories). After 4 to 8 weeks, the developed teratomas were excised, fixed in 4% paraformaldehyde or 10% formalin, and subjected to histological section preparations.

Cc1ccc2c(c1)C(=O)C1(O)CCN(c3ccccc3)C1=N2 (centres unmarked) [blebbistatin, 1-Phenyl-1,2,3,4-tetrahydro-4-hydroxypyrrolo[2,3-b]-7-methylquinolin-4-one]
Level of apoptosis (TUNEL and cleaved caspase-3 assays) (hiPS cells [1]; hPS cells in suspension culture): significantly lower levels of apoptosis
TUNEL-positive cells (hiPS cells [1]; hiPS cells under adherence condition, 24 h, n=3 (control 73±2.5%)): 11±3.8%
Cleaved caspase-3 level by Western analysis (cleaved caspase-3): decreased
Population doubling time (hiPS cells [2]): approximately 32.1 h
Minimum concentration supporting attachment of hiPS cells on PDL (hiPS cells [3]): 2 µM
Effect on cell-cell connections (hES cells): disrupted cell-cell connections
Oct3/4 and Nanog expression (Oct3/4 and Nanog): elevated levels of both transcription factors in a dose dependent manner
Teratoma histology [4]: contain all three germ-layer derived differentiated tissues
